How the values were obtained:
[1] = Cmax in Sprague-Dawley rat whole blood at 10 mg/kg, po by LC/MS/MS analysis; type: ADME, organism-based; design: dose 10 mg/kg, route oral
[2] = Cmax in Sprague-Dawley rat at 5 mg/kg, iv after 24 hrs by LC/MS/MS analysis; type: ADME, organism-based; design: dose 5 mg/kg, route intravenous; conditions: in vivo
Hepatitis C virus [3] = experiment: microbe, parasite or virus in culture; conditions: Huh-7, 72 h
Description: Antiviral activity against Hepatitis C virus infected in human Huh7ET cells assessed as inhibition of viral replication after 72 hrs by RT-PCR analysis

[4] = Cytotoxicity against human Huh7ET cells assessed as lactate dehydrogenase release after 72 hrs; type: cell-based, Huh-7
[5] = Tmax in monkey at 7. 5 mg/kg, po by LC/MS/MS analysis; type: ADME, organism-based, Macaca mulatta; design: dose 5 mg/kg, route oral; conditions: rhesus monkey, in vivo
Cytochrome P450 2C19 = Cytochrome P450 2C19 (Homo sapiens, UniProt P33261); experiment: Inhibition of human recombinant CYP2C19 after 30 mins; type: ADME
Chain of Cytochrome P450 2C19 (P33261 whole entry): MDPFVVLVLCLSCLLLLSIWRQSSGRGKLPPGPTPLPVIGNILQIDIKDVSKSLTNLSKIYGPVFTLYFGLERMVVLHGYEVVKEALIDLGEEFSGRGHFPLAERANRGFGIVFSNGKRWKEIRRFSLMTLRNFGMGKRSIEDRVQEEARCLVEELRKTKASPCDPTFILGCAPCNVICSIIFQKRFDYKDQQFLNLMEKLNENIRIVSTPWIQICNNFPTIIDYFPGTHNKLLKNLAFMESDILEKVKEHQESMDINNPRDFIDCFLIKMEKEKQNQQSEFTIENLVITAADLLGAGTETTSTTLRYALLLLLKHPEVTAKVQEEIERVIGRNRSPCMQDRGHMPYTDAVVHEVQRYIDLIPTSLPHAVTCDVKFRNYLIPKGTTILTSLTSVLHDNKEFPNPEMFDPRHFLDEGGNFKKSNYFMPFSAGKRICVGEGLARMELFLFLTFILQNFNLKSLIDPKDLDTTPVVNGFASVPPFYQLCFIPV

[6] = Cmax in monkey at 1.4 mg/kg, iv after 24 hrs by LC/MS/MS analysis; type: ADME, organism-based, Macaca mulatta; design: dose 1.4 mg/kg, route intravenous; conditions: rhesus monkey, in vivo
[7] = Cmax in Sprague-Dawley rat whole blood at 30 mg/kg, po by LC/MS/MS analysis; type: ADME, organism-based; design: dose 30 mg/kg, route oral
[8] = Cytotoxicity against human Huh7ET cells assessed as lactate dehydrogenase release up to 5 uM after 72 hrs in presence of 10 to 40% human serum; type: cell-based; conditions: huh-7, 72 h
[9] = Cmax in Sprague-Dawley rat at 5 mg/kg, po after 24 hrs by LC/MS/MS analysis; type: ADME, organism-based; design: dose 5 mg/kg, route oral; conditions: in vivo
Hepatitis C virus [10] = experiment: microbe, parasite or virus in culture; conditions: Huh-7, 24 h
Description: Antiviral activity against Hepatitis C virus infected in human Huh7ET cells assessed as inhibition of viral replication after 24 hrs by luciferase reporter gene assay

Hepatocyte = experiment: Cellular uptake in human hepatocytes assessed per mg of cellular protein association with nonparenchymal fraction at 2.27 uM after 1 hr by LC/MS/MS analysis; type: ADME, cell-based
[11] = AUC (2 to 24 hrs) in Sprague-Dawley rat whole blood at 10 mg/kg, iv by LC/MS/MS analysis; type: ADME, organism-based; design: time 2-24 hr, dose 10 mg/kg, route intravenous
[12] = Systemic clearance in Sprague-Dawley rat at 5 mg/kg, iv after 24 hrs by LC/MS/MS analysis; type: ADME, organism-based; design: dose 5 mg/kg, route intravenous; conditions: in vivo
[13] = AUC (0 to infinity) in monkey at 7.5 mg/kg, po after 24 hrs by LC/MS/MS analysis; type: ADME, organism-based, Macaca mulatta; design: dose 7.5 mg/kg, route oral, time infinity; conditions: rhesus monkey, plasma
[14] = Oral bioavailability in Sprague-Dawley rat at 20 mg/kg after 24 hrs by LC/MS/MS analysis; type: ADME, organism-based; conditions: in vivo
Liver microsomes = experiment: Intrinsic clearance in human liver microsomes at 1 uM after 5 to 30 mins by MS analysis in presence of NADPH; type: ADME, Microsome
[15] = Tmax in Sprague-Dawley rat at 20 mg/kg, po by LC/MS/MS analysis; type: ADME, organism-based; design: dose 20 mg/kg, route oral; conditions: in vivo
[16] = Apparent volume of distribution in monkey at 1 mg/kg, iv after 24 hrs by LC/MS/MS analysis; type: ADME, organism-based, Macaca mulatta; design: dose 1 mg/kg, route intravenous; conditions: rhesus monkey, in vivo, read-out: Vz
[17] = Cmax in Sprague-Dawley rat liver at 30 mg/kg, po by LC/MS/MS analysis; type: ADME, organism-based; design: dose 30 mg/kg, route oral
[18] = AUC (0 to infinity) in Sprague-Dawley rat at 5 mg/kg, iv after 24 hrs by LC/MS/MS analysis; type: ADME, organism-based; design: time infinity, dose 5 mg/kg, route intravenous; conditions: plasma
[19] = AUC (2 to 24 hrs) in Sprague-Dawley rat liver at 10 mg/kg, po by LC/MS/MS analysis; type: ADME, organism-based; design: time 2-24 hr, dose 10 mg/kg, route oral
[20] = Oral bioavailability in monkey at 15 mg/kg after 24 hrs by LC/MS/MS analysis; type: ADME, organism-based, Macaca mulatta; conditions: rhesus monkey, in vivo
[21] = AUC (0 to infinity) in monkey at 5 mg/kg, po after 24 hrs by LC/MS/MS analysis; type: ADME, organism-based, Macaca mulatta; design: time infinity, dose 5 mg/kg, route oral; conditions: rhesus monkey, plasma
Hepatitis C virus [22] = experiment: microbe, parasite or virus in culture; conditions: Huh-7, 72 h; remark: listed apart in the source
[23] = AUC (0 to infinity) in Sprague-Dawley rat at 5 mg/kg, po after 24 hrs by LC/MS/MS analysis; type: ADME, organism-based; design: time infinity, dose 5 mg/kg, route oral; conditions: plasma
Hepatitis C virus [24] = experiment: microbe, parasite or virus in culture; conditions: Huh-7, 120 h
Description: Antiviral activity against Hepatitis C virus infected in human Huh7ET cells assessed as inhibition of viral replication after 120 hrs by RT-PCR analysis

Hepatitis C virus [25] = experiment: Antiviral activity against Hepatitis C virus infected in human Huh7ET cells assessed as inhibition of viral replication after 72 hrs by luciferase reporter gene assay; type: functional, organism-based
Hepatitis C virus [26] = experiment: Antiviral activity against Hepatitis C virus infected in human Huh7ET cells assessed as inhibition of viral replication at 0.02 to 5 uM by luciferase reporter gene assay; type: functional, organism-based; conditions: Hepacivirus hominis, Huh-7, TDE = time-dependent effect
PBMC = experiment: Antiinflammatory activity in human PBMC assessed as inhibition of anti-CD3/CD28 antibody-induced IL-2 production treated for 1 hr before anti-CD3/CD28 antibody challenge measured after 6 hrs by immunosuppression assay; type: functional, cell-based; conditions: read-out: EC50
[27] = AUC (0 to infinity) in monkey at 1.4 mg/kg, iv after 24 hrs by LC/MS/MS analysis; type: ADME, organism-based, Macaca mulatta; design: time infinity, dose 1.4 mg/kg, route intravenous; conditions: rhesus monkey, plasma
[28] = Systemic clearance in monkey at 1 mg/kg, iv after 24 hrs by LC/MS/MS analysis; type: ADME, organism-based, Macaca mulatta; design: dose 1 mg/kg, route intravenous; conditions: rhesus monkey, in vivo
[29] = Cytotoxicity against human Huh7ET cells assessed as lactate dehydrogenase release up to 5 uM after 72 hrs; type: cell-based; conditions: huh-7, 72 h
[30] = AUC (2 to 24 hrs) in Sprague-Dawley rat whole blood at 10 mg/kg, po by LC/MS/MS analysis; type: ADME, organism-based; design: time upper 24 hr, time lower 2 hr, dose 10 mg/kg, route oral
[31] = Systemic clearance in Sprague-Dawley rat at 2 mg/kg, iv after 24 hrs by LC/MS/MS analysis; type: ADME, organism-based; design: dose 2 mg/kg, route intravenous; conditions: in vivo
[32] = Cytotoxicity against human Huh7 cells assessed as lactate dehydrogenase release after 72 hrs; type: cell-based, Huh-7
Hepatitis C virus [33] = experiment: microbe, parasite or virus in culture; conditions: Huh-7, 48 h
Description: Antiviral activity against Hepatitis C virus infected in human Huh7ET cells assessed as inhibition of viral replication after 48 hrs by luciferase reporter gene assay

[34] = Apparent volume of distribution in Sprague-Dawley rat at 5 mg/kg, iv after 24 hrs by LC/MS/MS analysis; type: ADME, organism-based; design: dose 5 mg/kg, route intravenous; conditions: in vivo, read-out: Vz
Hepatitis C virus [35] = experiment: microbe, parasite or virus in culture; conditions: Huh-7, 72 h; remark: listed apart in the source
[36] = Apparent elimination half life Sprague-Dawley rat at 10 mg/kg, po after 24 hrs by LC/MS/MS analysis; type: ADME, organism-based; design: dose 10 mg/kg, route oral; conditions: in vivo
[37] = Apparent elimination half life Sprague-Dawley rat at 5 mg/kg, po after 24 hrs by LC/MS/MS analysis; type: ADME, organism-based; design: dose 5 mg/kg, route oral; conditions: in vivo
Cytochrome P450 2C9 = Cytochrome P450 2C9 (Homo sapiens, UniProt P11712); experiment: Inhibition of human recombinant CYP2C9 after 30 mins; type: ADME
Chain of Cytochrome P450 2C9 (P11712 whole entry): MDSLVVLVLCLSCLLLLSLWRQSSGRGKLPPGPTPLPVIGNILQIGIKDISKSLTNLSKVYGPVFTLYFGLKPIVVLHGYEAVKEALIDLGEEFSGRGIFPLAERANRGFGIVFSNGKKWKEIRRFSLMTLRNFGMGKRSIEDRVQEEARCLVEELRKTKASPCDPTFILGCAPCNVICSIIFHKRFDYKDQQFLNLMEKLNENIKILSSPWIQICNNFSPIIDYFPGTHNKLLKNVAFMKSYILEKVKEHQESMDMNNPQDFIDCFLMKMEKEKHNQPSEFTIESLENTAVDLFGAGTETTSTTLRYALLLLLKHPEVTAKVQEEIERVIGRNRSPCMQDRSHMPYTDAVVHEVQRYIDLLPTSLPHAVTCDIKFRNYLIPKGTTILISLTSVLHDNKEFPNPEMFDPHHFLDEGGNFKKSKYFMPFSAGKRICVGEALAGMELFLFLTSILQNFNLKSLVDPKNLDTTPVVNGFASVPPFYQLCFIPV

Jurkat = experiment: cells; conditions: Homo sapiens
[38] = Tmax in monkey at 15 mg/kg, po by LC/MS/MS analysis; type: ADME, organism-based, Macaca mulatta; design: dose 15 mg/kg, route oral; conditions: rhesus monkey, in vivo
[39] = Apparent elimination half life in monkey at 7.5 mg/kg, po after 24 hrs by LC/MS/MS analysis; type: ADME, organism-based, Macaca mulatta; design: dose 7.5 mg/kg, route oral; conditions: rhesus monkey, in vivo
[40] = Cytotoxicity against human Huh7ET cells assessed as lactate dehydrogenase release up to 10 uM after 72 hrs; type: cell-based; conditions: huh-7, 72 h
[41] = Apparent elimination half life in monkey at 15 mg/kg, po after 24 hrs by LC/MS/MS analysis; type: ADME, organism-based, Macaca mulatta; design: dose 15 mg/kg, route oral; conditions: rhesus monkey, in vivo

C/C=C/C[C@@H](C)[C@@H](O)[C@H]1C(=O)N[C@@H](CC)C(=O)N(C)C(SCCN(C)C)C(=O)N(C)[C@@H](CC(C)(C)O)C(=O)N[C@@H](C(C)C)C(=O)N(C)[C@@H](CC(C)C)C(=O)N[C@@H](C)C(=O)N[C@H](C)C(=O)N(C)[C@@H](CC(C)C)C(=O)N(C)[C@@H](CC(C)C)C(=O)N(C)[C@@H](C(C)C)C(=O)N1C (single isomer, unassigned) [SCY 635]
Cmax [1]: 1870 ng/mL
Cmax [2]: 2990 ng/mL
EC50 (Hepatitis C virus [3]): 160 nM
CC50 at 72 h [4]: 14200 nM
Tmax [5]: 2.7 h
IC50 (Cytochrome P450 2C19): 12400 nM
Cmax [6]: 2310 ng/mL
Cmax [7]: 2220 ng/mL
Activity [8]: Non-toxic
Cmax [9]: 900 ng/mL
EC50 (Hepatitis C virus [10]): 200 nM
Drug uptake (Hepatocyte): 3.16 ng/mg
AUC(0-t) [11]: 30500 ng·h/mL
clearance [12]: 2.23 mL/min/kg
AUC(0-inf) [13]: 42000 ng·h/mL
bioavailability [14]: 18.9%
clearance (Liver microsomes): 14 µL/min/mg
Tmax [15]: 4 h
Vd [16]: 1.02 L/kg
Cmax [17]: 16800 ng/mL
AUC(0-inf) [18]: 37300 ng·h/mL
AUC(0-t) [19]: 120000 ng·h/mL
bioavailability [20]: 11.1%
AUC(0-inf) [21]: 27900 ng·h/mL
EC50 (Hepatitis C virus [22]): 120 nM
AUC(0-inf) [23]: 13000 ng·h/mL
EC50 (Hepatitis C virus [24]): 150 nM
Activity (Hepatitis C virus [25]; Hepacivirus hominis, Huh-7): Dose-dependent effect
EC90 (Hepatitis C virus [25]; Huh-7, 72 h): 350 nM
Activity (Hepatitis C virus [26]): tde
EC50 (PBMC): 5300 nM
AUC(0-inf) [27]: 49900 ng·h/mL
clearance [28]: 0.528 mL/min/kg
Activity [29]: Non-toxic
AUC(0-t) [30]: 18000 ng·h/mL
clearance [31]: 1.48 mL/min/kg
CC50 at 72 h [32]: 13700 nM
EC50 (Hepatitis C virus [33]): 70 nM
Vd [34]: 4.3 L/kg
EC50 (Hepatitis C virus [35]): 110 nM
half-life [36]: 21.4 h
half-life [37]: 19.2 h
IC50 (Cytochrome P450 2C9): 13400 nM
EC50 (Jurkat): 9900 nM
Tmax [38]: 2 h
half-life [39]: 33.1 h
Activity [40]: Non-toxic
half-life [41]: 43.3 h

From ChEMBL document CHEMBL1212786 (Antimicrob Agents Chemother, 2010)
